Converted amounts (≈) assume the structure as drawn. Like-named read-outs stand apart in the source and are kept apart here.
Tests used:
[1] = test system: S. aureus-5; experiment: MIC, clinical strain; type: cell-based, Staphylococcus aureus
Protocol: (§1) The pleuromutilin derivatives 1-4 prepared from Example 9 of the present disclosure were determined for their effect on Methicillin-resistant Staphylococcus aureus, Methicillin-resistant Staphylococcus epidermidis, standard strains of Staphylococcus aureus (S. aureus-29213 and S. aureus-25923), clinical strains 1-48 of S. aureus, Escherichia coli, S. agalactiae and S. dysgalactiae equisimilis (S. dysgalactiae-1, S. dysgalactiae-2, S. dysgalactiae-3) and minimum inhibitory concentration (MIC) using a two-fold serial dilution method, and the results were shown in Table 1, Table 2 and Table 3. The standard strains are commercially available from ATCC, and the clinical strains are preserved by Lanzhou Institute of Husbandry and Pharmaceutical Science of Chinese Academy of Agricultural Sciences (Lanzhou, Gansu, China).

[2] = test system: S. aureus-11; experiment: MIC, clinical strain; type: cell-based, Staphylococcus aureus
Protocol: as §1

[3] = test system: S. aureus-42; experiment: MIC, clinical strain; type: cell-based, Staphylococcus aureus
Protocol: as §1

[4] = test system: S. aureus-39; experiment: MIC, clinical strain; type: cell-based, Staphylococcus aureus
Protocol: as §1

[5] = test system: S. aureus-16; experiment: MIC, clinical strain; type: cell-based, Staphylococcus aureus
Protocol: as §1

[6] = test system: S. aureus-41; experiment: MIC, clinical strain; type: cell-based, Staphylococcus aureus
Protocol: as §1

[7] = test system: S. aureus-33; experiment: MIC, clinical strain; type: cell-based, Staphylococcus aureus
Protocol: as §1

[8] = test system: S. aureus-43; experiment: MIC, clinical strain; type: cell-based, Staphylococcus aureus
Protocol: as §1

[9] = test system: S. aureus-22; experiment: MIC, clinical strain; type: cell-based, Staphylococcus aureus
Protocol: as §1

[10] = test system: S. aureus-27; experiment: MIC, clinical strain; type: cell-based, Staphylococcus aureus
Protocol: as §1

[11] = test system: S. aureus-45; experiment: MIC, clinical strain; type: cell-based, Staphylococcus aureus
Protocol: as §1

[12] = test system: S. aureus-48; experiment: MIC, clinical strain; type: cell-based, Staphylococcus aureus
Protocol: as §1

[13] = test system: S. aureus-31; experiment: MIC, clinical strain; type: cell-based, Staphylococcus aureus
Protocol: as §1

[14] = test system: S. aureus-14; experiment: MIC, clinical strain; type: cell-based, Staphylococcus aureus
Protocol: as §1

[15] = test system: S. aureus-26; experiment: MIC, clinical strain; type: cell-based, Staphylococcus aureus
Protocol: as §1

[16] = test system: S. aureus-10; experiment: MIC, clinical strain; type: cell-based, Staphylococcus aureus
Protocol: as §1

[17] = test system: S. aureus-15; experiment: MIC, clinical strain; type: cell-based, Staphylococcus aureus
Protocol: as §1

[18] = test system: S. aureus-21; experiment: MIC, clinical strain; type: cell-based, Staphylococcus aureus
Protocol: as §1

[19] = test system: S. aureus-7; experiment: MIC, clinical strain; type: cell-based, Staphylococcus aureus
Protocol: as §1

[20] = test system: S. aureus-28; experiment: MIC, clinical strain; type: cell-based, Staphylococcus aureus
Protocol: as §1

[21] = test system: S. aureus-38; experiment: MIC, clinical strain; type: cell-based, Staphylococcus aureus
Protocol: as §1

[22] = test system: S. aureus-4; experiment: MIC, clinical strain; type: cell-based, Staphylococcus aureus
Protocol: as §1

[23] = test system: MRSE; experiment: MIC, two-fold serial dilution method; type: cell-based, Methicillin-resistant Staphylococcus epidermidis; conditions: for MIC: Staphylococcus epidermidis, read-out: minimum inhibitory concentration
Protocol: as §1

[24] = test system: S. dysgalactiae-1; experiment: MIC, two-fold serial dilution method; type: cell-based, S. dysgalactiae equisimilis; conditions: for MIC: Streptococcus dysgalactiae, read-out: minimum inhibitory concentration
Protocol: as §1

[25] = test system: S. dysgalactiae-3; experiment: MIC, two-fold serial dilution method; type: cell-based, S. dysgalactiae equisimilis; conditions: for MIC: Streptococcus dysgalactiae, read-out: minimum inhibitory concentration
Protocol: as §1

[26] = test system: S. dysgalactiae-2; experiment: MIC, two-fold serial dilution method; type: cell-based, S. dysgalactiae equisimilis; conditions: for MIC: Streptococcus dysgalactiae, read-out: minimum inhibitory concentration
Protocol: as §1

[27] = test system: S. agalactiae-1; experiment: MIC, two-fold serial dilution method; type: cell-based; conditions: for MIC: Streptococcus agalactiae, read-out: minimum inhibitory concentration
Protocol: as §1

[28] = test system: E. coli-25922; experiment: MIC, two-fold serial dilution method; type: cell-based, Escherichia coli; conditions: for MIC: Escherichia coli, read-out: minimum inhibitory concentration
Protocol: as §1

[29] = test system: MRSA-337371; experiment: MIC, two-fold serial dilution method; type: cell-based, Methicillin-resistant Staphylococcus aureus; conditions: for MIC: Staphylococcus aureus, read-out: minimum inhibitory concentration
Protocol: as §1

Structure (SMILES)	in vitro minimum inhibitory concentration [1]	in vitro minimum inhibitory concentration [2]	in vitro minimum inhibitory concentration [3]	in vitro minimum inhibitory concentration [4]	in vitro minimum inhibitory concentration [5]	in vitro minimum inhibitory concentration [6]	in vitro minimum inhibitory concentration [7]	in vitro minimum inhibitory concentration [8]	in vitro minimum inhibitory concentration [9] [µg/mL]	in vitro minimum inhibitory concentration [10]	in vitro minimum inhibitory concentration [11]	in vitro minimum inhibitory concentration [12]	in vitro minimum inhibitory concentration [13]	in vitro minimum inhibitory concentration [14]	in vitro minimum inhibitory concentration [15]	in vitro minimum inhibitory concentration [16]	in vitro minimum inhibitory concentration [19]	in vitro minimum inhibitory concentration [20]	in vitro minimum inhibitory concentration [21]	in vitro minimum inhibitory concentration [22]	further results
C=C[C@]1(C)C[C@@H](OC(=O)CSCCN(CC)CC)[C@]2(C)[C@H](C)CC[C@]3(CCC(=O)[C@H]32)[C@@H](C)[C@@H]1O [Tiamulin]	0.5	0.5	0.5	0.25	0.5	0.5	1	1	0.5	0.5	1	0.5	0.5	0.5	0.5	0.5	1	1	0.5	0.5	in vitro minimum inhibitory concentration [17]: 0.5 µg/mL; in vitro minimum inhibitory concentration [18]: 0.5 µg/mL; MIC [23]: 0.5 µg/mL (≈ 1.01 µM); MIC ([24]; S. dysgalactiae-1): 0.25 µg/mL (≈ 0.506 µM); MIC ([25]; S. dysgalactiae-3): 0.25 µg/mL (≈ 0.506 µM); MIC ([26]; S. dysgalactiae-2): 0.25 µg/mL (≈ 0.506 µM); MIC ([27]; S. agalactiae-1): 0.25 µg/mL (≈ 0.506 µM); MIC ([28]; E. coli-25922): > 16 µg/mL; MIC ([29]; MRSA-337371): 0.25 µg/mL (≈ 0.506 µM)
C=C[C@]1(C)C[C@@H](OC(=O)CSC(C)(C)CNC(=O)[C@H](N)C(C)C)[C@]2(C)[C@H](C)CC[C@]3(CCC(=O)[C@H]32)[C@@H](C)[C@@H]1O [Valnemulin]	0.063	0.063	0.063	0.125	0.063	0.063	0.063	0.063	0.25	0.063	0.25	0.125	0.063	0.125	0.063	0.063	0.063	0.063	0.063	0.125	in vitro minimum inhibitory concentration ([17]; in µg/mL): 0.063; in vitro minimum inhibitory concentration ([18]; in µg/mL): 0.125; MIC [23]: 0.031 µg/mL (≈ 0.0549 µM); MIC [24]: 0.031 µg/mL (≈ 0.0549 µM); MIC [25]: 0.031 µg/mL (≈ 0.0549 µM); MIC [26]: 0.031 µg/mL (≈ 0.0549 µM); MIC [27]: 0.031 µg/mL (≈ 0.0549 µM); MIC [28]: 16 µg/mL (≈ 28.3 µM); MIC ([29]; MRSA): 0.031 µg/mL (≈ 0.0549 µM)
C=CC1(C)CC(OC(=O)CSC(C)(C)CNC(=O)C2CCC2)C2(C)C(C)CCC3(CCC(=O)C32)C(C)C1O (stereo not drawn) [derivative 2]	0.031	0.063	0.063	0.016	0.031	0.031	0.031	0.016		0.031	0.125	0.063	0.031	0.063	0.063	0.063	0.063	0.063	0.016	0.063	in vitro minimum inhibitory concentration ([9]; in µg/mL): 0.063; in vitro minimum inhibitory concentration ([17]; in µg/mL): 0.031; in vitro minimum inhibitory concentration ([18]; in µg/mL): 0.063; minimum inhibitory concentration [23]: 0.031 µg/mL (≈ 0.0566 µM); minimum inhibitory concentration ([24]; S. dysgalactiae-1): 0.031 µg/mL (≈ 0.0566 µM); minimum inhibitory concentration ([25]; S. dysgalactiae-3): 0.031 µg/mL (≈ 0.0566 µM); minimum inhibitory concentration ([26]; S. dysgalactiae-2): 0.031 µg/mL (≈ 0.0566 µM); minimum inhibitory concentration ([27]; S. agalactiae-1): 0.031 µg/mL (≈ 0.0566 µM); minimum inhibitory concentration ([28]; E. coli-25922): >16 µg/mL; minimum inhibitory concentration ([29]; MRSA-337371): 0.031 µg/mL (≈ 0.0566 µM)

From US20250129018A1, “PLEUROMUTILIN DERIVATIVES CONTAINING CYCLOALKYL GROUP AND PREPARATION METHODS AND APPLICATIONS THEREOF” (priority 2023, published 2025)
